Where a SMILES comes first, the peptide text is derived from it. [ ]: non-standard residue; d: D form. The star is where a group is joined. Tyr(Ph) = N[C@@H](Cc1ccc(Oc2ccccc2)cc1)C(=O)O; His(π-Bn) = N[C@@H](Cc1cncn1Cc1ccccc1)C(=O)O; Phe(4-NH2) = Nc1ccc(C[C@H](N)C(=O)O)cc1; 3Pal = N[C@@H](Cc1cccnc1)C(=O)O; Aic = NC1(C(=O)O)Cc2ccccc2C1; Ac6c = NC1(C(=O)O)CCCCC1; Aib = CC(C)(N)C(=O)O; Bn = c1ccc(C*)cc1
What follows are molecules tested against T1, human glucagon-like peptide-1 receptor (GLP-1R) (Homo sapiens, UniProt P43220) (assay: Human GLP-1 receptor cell-based assay (flash luminescence, Target Activation phase)). Conditions: CHO chAMPion cells stably co-expressing human GLP-1R, Photina and cAMP-activated calcium channel; agonist activity; normalization by forskolin at 10 μM; ^a) values from single experiment; read-out: EC50 (μM) Target Activation (TA).
T1 construct: host or cells: CHO chAMPion cells
T1 sequence (P43220 24-463): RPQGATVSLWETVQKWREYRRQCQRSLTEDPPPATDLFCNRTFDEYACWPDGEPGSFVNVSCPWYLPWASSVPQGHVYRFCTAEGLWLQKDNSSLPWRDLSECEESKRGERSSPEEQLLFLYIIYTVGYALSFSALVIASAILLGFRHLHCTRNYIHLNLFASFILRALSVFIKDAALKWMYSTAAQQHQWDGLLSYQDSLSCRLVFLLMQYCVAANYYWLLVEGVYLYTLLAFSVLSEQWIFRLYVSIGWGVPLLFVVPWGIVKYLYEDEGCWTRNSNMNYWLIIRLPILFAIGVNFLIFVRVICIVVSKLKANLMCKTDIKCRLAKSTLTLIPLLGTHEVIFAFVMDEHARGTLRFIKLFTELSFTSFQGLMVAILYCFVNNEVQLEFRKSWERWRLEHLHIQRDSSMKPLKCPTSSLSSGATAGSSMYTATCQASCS
Description: CHO chAMPion cells (Axxam SpA; S. Corazza, Assay Drug Dev. Technol. 2009, 7, 304-307) stably co-expressing the human glucagon-like peptide-1 receptor (GLP-1R), the Ca^2+-sensitive photoprotein PHOTINA® (S. Bovolenta et al., J. Biomol. Screen. 2007, 12, 694-704) and a mutated cAMP-activated calcium ion channel (WO2004/083803 A2) were used to monitor GLP-1R signaling after stimulation with an agonist. Activation of the Gas-coupled GPCR GLP-1R was monitored by measuring the flash luminescence of the Ca^2+-sensitive photoprotein as reporter system with FLIPR^TETRA screening instrumentation (Molecular Devices) upgraded with an ICCD Camera (MDC). For data quality check and data analysis the Genedata SCREENER® software was used.
The reference agonist GLP-1 (glucagon-like peptide-1 amide fragment 7-36) and forskolin were purchased from Sigma (cat. G8147 and F6886, respectively) and prepared according to each ligand's specifications. All handling of ligands were done to ensure proper control throughout the experiments. The steps of the implemented workflow and data analysis are mainly as follows:
Stably transfected chAMPion cells are seeded 10000 c/w in 384 MTP in Dulbecco's MEM/nutrient mix F12 (BioWhittaker cat. BE04-687F/U1; 500 mL) supplemented with sodium pyruvate (BioWhittaker cat. BE13-115E; 5 mL of 100 mM solution), HEPES (BioWhittaker cat. BE17-737E; 6.5 mL of 1M solution), sodium bicarbonate (BioWhittaker cat. BE17-613E; 25 mL of 7.5% solution), fetal bovine serum (Euroclone cat. ECS 0180L; 50 mL), penicillin-streptomycin (BioWhittaker cat. DE17-602E; 5 mL of 100×solution), 1 mg/mL G418 (selection antibiotic for GLP-1R) and 200 μg/mL hygromycin in 25 μL/well for 24 hours. On the day of the experiment, plates are removed from the incubator, freed from the growth medium, equilibrated at room temperature for 1 h, loaded with 30 μl/well of Ca^2+ free Tyrode's buffer containing 20 μM coelentrazine and 500 μM IBMX, and incubated for 4 hours at room temperature.
All compounds were tested at 8 concentrations, starting from 50 μM in quadruplicate, intra-plate (dilution step 1:2.15) to determine EC50 values. After incubation, the volume in all the wells is flattened to 20 αL by aspiration with a CYBIO®-VARIO pipettor. First Injection (10 μL of test compounds in Ca^2+ free Tyrode's buffer, DMSO 0.5% v/v and BSA 0.01%; or 10 μL of reference compounds GLP-1 or forskolin in Ca′ free Tyrode's buffer, DMSO 0.5% v/v and BSA 0.01%) is performed by the FLIPR^TETRA and the kinetic response is optionally monitored over a period of 60 seconds. Incubation for 30 minutes at room temperature is followed by the Second Injection (Tyrode's buffer+10 mM CaCl2)) and the kinetic response is monitored over a period of 60 seconds.
The kinetic response is divided into two distinct phases: monitoring the kinetic response after the First Injection, termed Compound Addition (CA), and monitoring the kinetic response after the Second Injection of 10 mM CaCl2, termed Target Activation (TA). Agonist activity of compounds is evaluated in the Target Activation (TA) phase and it is based on normalization to TA activation by forskolin at 10 μM or GLP-1 at 3.16 nM (EC100)
A good correlation was observed between EC50, data normalized by forskolin and by GLP-1.

In order of falling EC50:
1. CC(C)C[C@@H]1NC(=O)[C@H](CC(C)C)NC(=O)[C@H](CCC(=O)O)NC(=O)[C@H](Cc2ccccc2)NC(=O)C2(CCCCC2)NC(=O)[C@H]2CCCN2C(=O)[C@H](Cc2ccccc2)NC(=O)[C@H](CCC(=O)O)NC(=O)[C@H](Cc2c[nH]c3ccccc23)NC(=O)[C@H](C)NC1=O [Ex. 43, cyclo(-Phe-Glu-Leu-Leu-Ala-Trp-Glu-Phe-^DPro-Chx-)] (cyclo(FELLAWEF[dP][Ac6c]))  4.5 ± 2.6 µM
2. COc1ccc(C[C@@H]2NC(=O)[C@H](CCC(=O)O)NC(=O)[C@H](Cc3c[nH]c4ccccc34)NC(=O)[C@H](C)NC(=O)[C@H](Cc3ccc(O)cc3)NC(=O)[C@H](CCC(N)=O)NC(=O)[C@H](Cc3c[nH]c4ccccc34)NC(=O)[C@H](Cc3ccccc3)NC(=O)C3(CCCCC3)NC(=O)[C@H]3CCCN3C2=O)cc1 [compound 9, cyclo(-Phe-Trp-Gln-Tyr-Ala-Trp-Glu-Tyr(Me)-^DPro-Chx-)] (cyclo(FWQYAWEY(Me)[dP][Ac6c]))  0.8 ± 0.69 µM
3. C[C@@H]1NC(=O)[C@H](Cc2ccc(O)cc2)NC(=O)[C@H](CCC(N)=O)NC(=O)[C@H](Cc2ccc(O)cc2)NC(=O)[C@H](Cc2ccccc2)NC(=O)C2(CCCCC2)NC(=O)[C@H]2CCCN2C(=O)[C@H](Cc2ccc(O)cc2)NC(=O)[C@H](CCC(=O)O)NC(=O)[C@H](Cc2c[nH]c3ccccc23)NC1=O [compound 14, cyclo(-Phe-Tyr-Gln-Tyr-Ala-Trp-Glu-Tyr-^DPro-Chx-)] (cyclo(FYQYAWEY[dP][Ac6c]))  0.72 ± 0.43 µM
4. CC(C)C[C@@H]1NC(=O)[C@H](CCC(=O)O)NC(=O)[C@H](Cc2ccccc2)NC(=O)C2(Cc3ccccc3C2)NC(=O)[C@H]2CCCN2C(=O)[C@H](Cc2ccc(O)cc2)NC(=O)[C@H](CCC(=O)O)NC(=O)[C@H](Cc2c[nH]c3ccccc23)NC(=O)[C@H](C)NC(=O)[C@H](Cc2ccc(O)cc2)NC1=O [compound 13, cyclo(-Phe-Glu-Leu-Tyr-Ala-Trp-Glu-Tyr-^DPro-Ind-)] (cyclo(FELYAWEY[dP][Aic]))  0.66 ± 0.25 µM
5. C[C@@H]1NC(=O)[C@H](Cc2ccc(O)cc2)NC(=O)[C@H](CCC(N)=O)NC(=O)[C@H](Cc2ccc(Oc3ccccc3)cc2)NC(=O)[C@H](Cc2ccccc2)NC(=O)C2(CCCCC2)NC(=O)[C@H]2CCCN2C(=O)[C@H](Cc2ccc(O)cc2)NC(=O)[C@H](CCC(=O)O)NC(=O)[C@H](Cc2c[nH]c3ccccc23)NC1=O [compound 7, cyclo(-Phe-Tyr(Ph)-Gln-Tyr-Ala-Trp-Glu-Tyr-^DPro-Chx-)] (cyclo(F[Tyr(Ph)]QYAWEY[dP][Ac6c]))  0.57 ± 0.58 µM
6. C[C@@H]1NC(=O)[C@H](Cc2ccc(O)cc2)NC(=O)[C@H](CCC(N)=O)NC(=O)[C@H](Cc2ccc(Oc3ccccc3)cc2)NC(=O)[C@H](Cc2ccccc2)NC(=O)C(C)(C)NC(=O)[C@H]2CCCN2C(=O)[C@H](CCCNC(=N)N)NC(=O)[C@H](CCC(=O)O)NC(=O)[C@H](Cc2c[nH]c3ccccc23)NC1=O [compound 11, cyclo(-Phe-Tyr(Ph)-Gln-Tyr-Ala-Trp-Glu-Arg-^DPro-Aib-)] (cyclo(F[Tyr(Ph)]QYAWER[dP][Aib]))  0.54 ± 0.43 µM
7. CC(C)C[C@@H]1NC(=O)[C@H](Cc2c[nH]c3ccccc23)NC(=O)[C@H](Cc2ccccc2)NC(=O)C2(CCCCC2)NC(=O)[C@H]2CCCN2C(=O)[C@H](Cc2ccc(O)cc2)NC(=O)[C@H](CCC(=O)O)NC(=O)[C@H](Cc2c[nH]c3ccccc23)NC(=O)[C@H](C)NC(=O)[C@H](Cc2ccc(O)cc2)NC1=O [compound 12, cyclo(-Phe-Trp-Leu-Tyr-Ala-Trp-Glu-Tyr-^DPro-Chx-)] (cyclo(FWLYAWEY[dP][Ac6c]))  0.48 ± 0.24 µM
8. C[C@@H]1NC(=O)[C@H](Cc2ccc(O)cc2)NC(=O)[C@H](CCC(N)=O)NC(=O)[C@H](Cc2ccccc2)NC(=O)[C@H](Cc2ccccc2)NC(=O)C2(CCCCC2)NC(=O)[C@H]2CCCN2C(=O)[C@H](CCCNC(=N)N)NC(=O)[C@H](CCC(=O)O)NC(=O)[C@H](Cc2c[nH]c3ccccc23)NC1=O [compound 10, cyclo(-Phe-Phe-Gln-Tyr-Ala-Trp-Glu-Arg-^DPro-Chx-)] (cyclo(FFQYAWER[dP][Ac6c]))  0.39 ± 0.23 µM
9. COc1ccc(C[C@@H]2NC(=O)[C@H](CCC(N)=O)NC(=O)[C@H](Cc3c[nH]c4ccccc34)NC(=O)[C@H](Cc3ccccc3)NC(=O)C3(CCCCC3)NC(=O)[C@H]3CCCN3C(=O)[C@H](Cc3ccc(O)cc3)NC(=O)[C@H](CCC(=O)O)NC(=O)[C@H](Cc3c[nH]c4ccccc34)NC(=O)[C@H](C)NC2=O)cc1 [compound 8, cyclo(-Phe-Trp-Gln-Tyr(Me)-Ala-Trp-Glu-Tyr-^DPro-Chx-)] (cyclo(FWQY(Me)AWEY[dP][Ac6c]))  0.35 ± 0.3 µM
10. C[C@@H]1NC(=O)[C@H](Cc2ccc(O)cc2)NC(=O)[C@H](CCC(N)=O)NC(=O)[C@H](Cc2cccnc2)NC(=O)[C@H](Cc2ccccc2)NC(=O)C2(CCCCC2)NC(=O)[C@H]2CCCN2C(=O)[C@H](Cc2ccc(O)cc2)NC(=O)[C@H](CCC(=O)O)NC(=O)[C@H](Cc2c[nH]c3ccccc23)NC1=O [compound 2, cyclo(-Phe-3Pal-Gln-Tyr-Ala-Trp-Glu-Tyr-^DPro-Chx-)] (cyclo(F[3Pal]QYAWEY[dP][Ac6c]))  0.28 ± 0.26 µM
11. C[C@@H]1NC(=O)[C@H](Cc2ccc(O)cc2)NC(=O)[C@H](CCC(N)=O)NC(=O)[C@H](Cc2ccc(Oc3ccccc3)cc2)NC(=O)[C@H](Cc2ccccc2)NC(=O)C2(CCCCC2)NC(=O)[C@H]2CCCN2C(=O)[C@H](CCCNC(=N)N)NC(=O)[C@H](CCC(=O)O)NC(=O)[C@H](Cc2c[nH]c3ccccc23)NC1=O [compound 6, cyclo(-Phe-Tyr(Ph)-Gln-Tyr-Ala-Trp-Glu-Arg-^DPro-Chx-)] (cyclo(F[Tyr(Ph)]QYAWER[dP][Ac6c]))  0.19 ± 0.12 µM
12. C[C@@H]1NC(=O)[C@H](Cc2ccc(O)cc2)NC(=O)[C@H](CCC(N)=O)NC(=O)[C@H](Cc2ccc(N)cc2)NC(=O)[C@H](Cc2ccccc2)NC(=O)C2(CCCCC2)NC(=O)[C@H]2CCCN2C(=O)[C@H](Cc2ccc(O)cc2)NC(=O)[C@H](CCC(=O)O)NC(=O)[C@H](Cc2c[nH]c3ccccc23)NC1=O [compound 3, cyclo(-Phe-Phe(4NH2)-Gln-Tyr-Ala-Trp-Glu-Tyr-^DPro-Chx-)] (cyclo(F[Phe(4-NH2)]QYAWEY[dP][Ac6c]))  0.18 ± 0.18 µM
13. C[C@@H]1NC(=O)[C@H](Cc2ccc(O)cc2)NC(=O)[C@H](CCC(N)=O)NC(=O)[C@H](Cc2ccc(OCc3ccccc3)cc2)NC(=O)[C@H](Cc2ccccc2)NC(=O)C2(CCCCC2)NC(=O)[C@H]2CCCN2C(=O)[C@H](Cc2ccc(O)cc2)NC(=O)[C@H](CCC(=O)O)NC(=O)[C@H](Cc2c[nH]c3ccccc23)NC1=O [compound 5, cyclo(-Phe-Tyr(Bn)-Gln-Tyr-Ala-Trp-Glu-Tyr-^DPro-Chx-)] (cyclo(FY(Bn)QYAWEY[dP][Ac6c]))  0.15 ± 0.05 µM
14. C[C@@H]1NC(=O)[C@H](Cc2ccc(O)cc2)NC(=O)[C@H](CCC(N)=O)NC(=O)[C@H](Cc2ccccc2)NC(=O)[C@H](Cc2ccccc2)NC(=O)C2(CCCCC2)NC(=O)[C@H]2CCCN2C(=O)[C@H](Cc2ccc(O)cc2)NC(=O)[C@H](CCC(=O)O)NC(=O)[C@H](Cc2c[nH]c3ccccc23)NC1=O [Ex. 1, cyclo(-Phe-Phe-Gln-Tyr-Ala-Trp-Glu-Tyr-^DPro-Chx-)] (cyclo(FFQYAWEY[dP][Ac6c]))  0.09 ± 0.05 µM
15. C[C@@H]1NC(=O)[C@H](Cc2ccc(O)cc2)NC(=O)[C@H](CCC(N)=O)NC(=O)[C@H](Cc2cncn2Cc2ccccc2)NC(=O)[C@H](Cc2ccccc2)NC(=O)C2(CCCCC2)NC(=O)[C@H]2CCCN2C(=O)[C@H](Cc2ccc(O)cc2)NC(=O)[C@H](CCC(=O)O)NC(=O)[C@H](Cc2c[nH]c3ccccc23)NC1=O [Ex. 4, cyclo(-Phe-His(Bn)-Gln-Tyr-Ala-Trp-Glu-Tyr-^DPro-Chx-)] (cyclo(F[His(π-Bn)]QYAWEY[dP][Ac6c]))  0.09 ± 0.02 µM
